# Results: the supplement of paper PMC3493320
# System: NCI-H295R
# Test: IC50 (antiproliferative, ATP content)
# Settings: 48 h
# Method in brief: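 Serum-free ITS-supplemented DMEM was used to seed 1500 adrenocortical carcinoma cells per well in 1536-well plates, which were cultured overnight. Eight final concentrations of each library compound, from 0.6 nM to 46 µM, were added by pin transfer, followed by 48 h at 37 °C in 5% CO2 and a CellTiter-Glo ATP read after 20 min at room temperature. Luminescence was set against vehicle and positive-control wells, and the IC50 was obtained by logistic curve fitting. Any compound with no concentration response was entered as above the top dose.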
row,SMILES,IC50
1,C=C1c2c(Cl)ccc(O)c2C(=O)C2=C(O)[C@]3(O)C(=O)C(C(N)=O)=C(O)[C@@H](N(C)C)[C@@H]3[C@@H](O)[C@H]12.O=C(O)c1cc(S(=O)(=O)O)ccc1O,> 46 µM
2,C=C1C[C@H]2[C@@H]3C=C(C)C4=CC(=O)CC[C@]4(C)[C@H]3CC[C@]2(C)[C@@]1(OC(C)=O)C(C)=O,> 46 µM
3,Cc1ccc(S(=O)(=O)NC(=O)NN2CC3CCCC3C2)cc1 (centres undefined),> 46 µM
4,CCS(=O)(=O)CCn1c([N+](=O)[O-])cnc1C,> 46 µM
5,C[N+]1([O-])[C@@H]2CC[C@H]1C[C@@H](OC(=O)C(CO)c1ccccc1)C2.Cl (some centres undefined),> 46 µM
6,CNC(=O)Oc1ccccc1C(=O)Nc1ccccc1,> 46 µM
7,C[C@]12CCC(=O)C=C1C=C[C@@H]1[C@@H]2CC[C@@]2(C)[C@H]1CC[C@@]2(O)CCC(=O)[O-].[K+],> 46 µM
8,O=C(O)CCn1c2c(c3ccccc31)C[C@H](NS(=O)(=O)c1ccc(F)cc1)CC2,> 46 µM
9,O=C2N1[C@]([C@@]([H])2NC(CC3=CC=CC=C3)=O)([H])SC(C)(C)[C@@H]1[C@@](O)=O.O=C5N4[C@]([C@@]([H])5NC(CC6=CC=CC=C6)=O)([H])SC(C)(C)[C@@H]4[C@@](O)=O.C7(CNCCNCC8=CC=CC=C8)=CC=CC=C7,> 46 µM
10,NNC(=O)CP(=O)(c1ccccc1)c1ccccc1,> 46 µM
11,O=[N+]([O-])O[C@H]1CO[C@H]2[C@@H]1OC[C@H]2O[N+](=O)[O-],> 46 µM
12,CCn1cc(C(=O)O)c(=O)c2cc3c(cc21)OCO3,> 46 µM
13,CC(C)NCC(O)c1ccccc1Cl.Cl (centres undefined),> 46 µM
14,O=c1cc(O)c(Cl)c[nH]1,> 46 µM
15,CCN(CC)C(=S)[S-].[Na+],> 46 µM
16,CC[NH+](CC)CCc1nc(-c2ccccc2)no1.O=C([O-])CC(O)(CC(=O)O)C(=O)O,> 46 µM
17,NC(=O)C1c2ccccc2CCc2ccccc21,> 46 µM
18,Cc1ccccc1N1C(=O)c2cc(S(N)(=O)=O)c(Cl)cc2NC1C (centres undefined),> 46 µM
19,O=[C@](O)[C@@]3(C)[C@@]1([H])[C@@](CCC3)(C)[C@]2([H])C(C=[C@@]([C@@H](C)C)CC2)=CC1,> 46 µM
20,CCC1NC(=O)c2cc(S(N)(=O)=O)c(Cl)cc2N1 (centres undefined),> 46 µM
21,O=C(O)CCC(=O)C(=O)O,> 46 µM
22,CCNC(=O)/C=C/c1cccc(Br)c1,> 46 µM
23,C[C@]12C[C@H]3S[C@H]3C[C@@H]1CC[C@@H]1[C@@H]2CC[C@]2(C)[C@@H](O)CC[C@@H]12,> 46 µM
24,Cc1cccc(C(=O)O)c1O,> 46 µM

row,SMILES,IC50
1,CC1OC(C)OC(C)O1 (centres undefined),> 46 µM
2,CCCCNC(=O)NS(=O)(=O)c1ccc(C)cc1,> 46 µM
3,CCCC(=O)Nc1ccc(OCC(O)CNC(C)C)c(C(C)=O)c1.Cl (centres undefined),> 46 µM
4,C[C@]41/C=C\C(=O)\C=C4\C(=C)C[C@H]2[C@@H]3CCC(=O)[C@@]3(C)CC[C@H]12,> 46 µM
5,CCCN(CCc1cccs1)[C@H]1CCc2c(O)cccc2C1,> 46 µM
6,CN(C)CCCN1c2ccccc2Sc2ccccc21.Cl,> 46 µM
7,COc1cc(N)c(Cl)cc1C(=O)NC1CCN(Cc2ccccc2)CC1.O=C(O)/C=C\C(=O)O,> 46 µM
8,CCCOC(C(=O)OC1CCN(C)CC1)(c1ccccc1)c1ccccc1.Cl,> 46 µM
9,Cc1ncc[nH]1,> 46 µM
10,F[C@]1([C@](C)2C=C3)[C@@H](O)C[C@@]([C@]([C@@](CO)=O)(O)[C@H]4C)(C)[C@](C4)([H])[C@@]([H])1CCC2=CC3=O,> 46 µM
11,CN[C@@H]1[C@H](O[C@H]2[C@H](O[C@H]3[C@H](O)[C@@H](O)[C@H](NC(=N)N)[C@@H](O)[C@@H]3NC(=N)N)O[C@@H](C)[C@]2(O)C=O)O[C@@H](CO)[C@H](O)[C@H]1O.CN[C@@H]1[C@H](O[C@H]2[C@H](O[C@H]3[C@H](O)[C@@H](O)[C@H](NC(=N)N)[C@@H](O)[C@@H]3NC(=N)N)O[C@@H](C)[C@]2(O)C=O)O[C@@H](CO)[C@H](O)[C@H]1O.O=S(=O)(O)O.O=S(=O)(O)O.O=S(=O)(O)O,> 46 µM
12,c1ccc(-n2cnnn2)cc1,> 46 µM
13,CN(C)C(=O)C(CCN1CCC(O)(c2ccc(Cl)cc2)CC1)(c1ccccc1)c1ccccc1,> 46 µM
14,COc1cc(NS(=O)(=O)c2ccc(N)cc2)ncn1,> 46 µM
15,c1ccc2[nH]c(-c3cscn3)nc2c1,> 46 µM
16,CCOC(C)OCC,> 46 µM
17,C=CC1=C(C(=O)O)N2C(=O)[C@@H](NC(=O)C(=NO)c3csc(N)n3)[C@H]2SC1,> 46 µM
18,Cl.O=C(CCCN1CCC(O)(c2cccc(C(F)(F)F)c2)CC1)c1ccc(F)cc1,> 46 µM
19,CC(O)C(=O)O.CCOc1ccc2nc3cc(N)ccc3c(N)c2c1.O,> 46 µM
20,CC(C)(CO)[C@@H](O)C(=O)NCCCO,> 46 µM
21,C=CCN(C1=NCCN1)c1c(Cl)cccc1Cl,> 46 µM
22,CN1C(=O)CC(=O)N(c2ccccc2)c2cc(Cl)ccc21,> 46 µM
23,CO[C@]12C[C@@H](COC(=O)c3cncc(Br)c3)CN(C)[C@@H]1Cc1cn(C)c3cccc2c13,> 46 µM
24,CC(=O)OCC(=O)[C@H]2CC[C@H]3[C@@H]4CC\C1=C\C(=O)CC[C@]1(C)[C@H]4CC[C@]23C,> 46 µM

row,SMILES,IC50
1,Cl[C@H](CC4)[C@H](OC)C[C@@H]4/C=[C@](C)/[C@@H](OC([C@]2([H])CCCCN12)=O)[C@H](C)[C@@H](O)CC([C@H](CC)/C=C(C)/C[C@H](C)C[C@H](OC)[C@@]([C@@H](OC)C[C@H]3C)([H])O[C@@]3(O)C(C1=O)=O)=O,> 46 µM
2,CCc1ncnc2cc(OC)c(OC)cc12,> 46 µM
3,Cc1cc(CC(=O)O)c(C)n1-c1ccc(Cl)cc1,> 46 µM
4,CC(C)(C)C(=O)OCOC(=O)[C@@H]1N2C(=O)[C@@H](/N=C/N3CCCCCC3)[C@H]2SC1(C)C.Cl,> 46 µM
5,CC(C)CN(C[C@@H](O)[C@H](Cc1ccccc1)NC(=O)O[C@@H]1CCOC1)S(=O)(=O)c1ccc(N)cc1,> 46 µM
6,NS(=O)(=O)c1cc(C(=O)O)cc(N2CCCC2)c1Oc1ccccc1,> 46 µM
7,c1ccc2sc(SSc3nc4ccccc4s3)nc2c1,> 46 µM
8,Cl.N=C(N)n1cccn1,> 46 µM
9,CO[C@@H]1[C@@H](O[C@@H]2O[C@H](C)[C@@H](O[C@H]3C[C@@](C)(O)[C@@H](O)[C@H](C)O3)[C@H](N(C)C)[C@H]2O)[C@@H](CC=O)C[C@@H](C)[C@@H](O[C@@H]2CC[C@H](N(C)C)[C@@H](C)O2)/C=C/C=C/C[C@@H](C)OC(=O)C[C@H]1O,> 46 µM
10,CCN(CC)CCOC[C@H]1O[C@@H](O)[C@H](OCCN(CC)CC)[C@@H](O)[C@@H]1O,> 46 µM
11,O=C(O)c1ccccc1O.Oc1cccc2cccnc12,> 46 µM
12,O.O.O.O.O=C1[O][Mg]2([O]C(=O)c3ccccc3[O]2)[O]c2ccccc21,> 46 µM
13,[O-]S(=O)(=O)OC.C[N+]1(C)CC\C(CC1)=C(\c2ccccc2)c3ccccc3,> 46 µM
14,FC(F)(F)C(Cl)Br (centres undefined),> 46 µM
15,Cc1cc(=O)oc2cc(O)ccc12,> 46 µM
16,C=C[C@H]1C[N@@]2CC[C@H]1C[C@H]2[C@H](OC(=O)OCC)c1ccnc2ccc(OC)cc12,> 46 µM
17,O=C(N/N=C/c1ccc([N+](=O)[O-])o1)c1cc([N+](=O)[O-])cc([N+](=O)[O-])c1O,> 46 µM
18,CN(C)CCc1c[nH]c2ccc(C[C@H]3COC(=O)N3)cc12,> 46 µM
19,[Cl][In]([Cl])[Cl],> 46 µM
20,CCCC(C)C1(CC)C(=O)N=C(O)NC1=O (centres undefined),> 46 µM
21,COC(=O)[C@@H](N)CCCN/C(N)=N/[N+](=O)[O-],> 46 µM
22,N[C@@H](CCC(=O)N[C@@H](CS)C(=O)NCC(=O)O)C(=O)O,> 46 µM
23,N[C@@]([C@H]([C@H]1O)O[C@H]([C@@H]([C@H]1O)O)O)=O,> 46 µM
24,CCC(C(N)=O)N1CCCC1=O (centres undefined),> 46 µM

row,SMILES,IC50
1,C[N+]1(CCCCC[N+]2(C)CCCC2)CCCC1.O=C([O-])[C@H](O)[C@@H](O)C(=O)O.O=C([O-])[C@H](O)[C@@H](O)C(=O)O,> 46 µM
2,NC(=O)NS(=O)(=O)c1ccc(N)cc1,> 46 µM
3,CN(C)CCOC(=O)COc1ccc(Cl)cc1.Cl,> 46 µM
4,CC(=O)OCC(=O)C1CCC2C3CCC4CC(O)CCC4(C)C3C(=O)CC12C (centres undefined),> 46 µM
5,OC[C@H]1O[C@@](CO)(O[C@H]2O[C@H](CO)[C@@H](O)[C@H](O)[C@H]2O)[C@@H](O)[C@@H]1O,> 46 µM
6,COS(=O)(=O)[O-].C[N+]1(C)CCCCC1COC(=O)C(O)(c1ccccc1)c1ccccc1 (centres undefined),> 46 µM
7,CC(C)(C)NCC(O)c1ccccc1Cl.Cl (centres undefined),> 46 µM
8,Cc1ccccn1,> 46 µM
9,CC1=C(C/C=C(\C)CCC[C@H](C)CCC[C@H](C)CCCC(C)C)C(=O)c2ccccc2C1=O,> 46 µM
10,ClC4=CC3=[C@@](C=C4O)[C@H]2C1=CC=CC=C1CC[C@@H]2N(C)CC3,> 46 µM
11,OCCOCCOCCO,> 46 µM
12,COc1ccc(C(=O)/C(Br)=C\C(=O)O)cc1,> 46 µM
13,NCCc1ccc(O)cc1,> 46 µM
14,CC(=O)OCC(=O)[C@@]1(O)CC[C@H]2[C@@H]3CCC4=CC(=O)CC[C@]4(C)C3=CC[C@@]21C,> 46 µM
15,C=CCSSSCC=C,> 46 µM
16,OC[C@H]1O[C@@H](O[C@@H]2[C@@H](CO)O[C@](O)(CO)[C@H]2O)[C@H](O)[C@@H](O)[C@H]1O,> 46 µM
17,Cl.c1ccc2c(c1)CCCC2C1=NCCN1 (centres undefined),> 46 µM
18,CN(C)CCCN1c2ccccc2Sc2ccc(C(F)(F)F)cc21.Cl,> 46 µM
19,N[C@H](CO)C(=O)O,> 46 µM
20,CC(=O)O[C@H]1CC[C@H]2[C@@H]3CCC4=CC(=O)CCC4=C3C=C[C@]12C,> 46 µM
21,O=[N+]([O-])O[C@@H]1CO[C@H]2[C@@H]1OC[C@@H]2O,> 46 µM
22,CC[N+](CC)(CC(=O)Nc1c(C)cccc1C)Cc1ccccc1.O=C([O-])c1ccccc1,> 46 µM
